Measured values published in PubChem BioAssay (NCI).
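In this assay, cells in 96-well plates receive the compound at five concentrations for 48 hours. Endpoints are linearly interpolated between the surrounding concentrations. GI50 is the concentration that inhibits growth by half. TGI: concentration producing complete growth inhibition.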

Tests used:
Test in all cases: NCI anticancer screen, dose series, 48 h
COLO 205 colon = test system: COLO 205 colon
SNB-19 CNS = test system: SNB-19 CNS
UO-31 renal = test system: UO-31 renal
OVCAR-8 ovarian = test system: OVCAR-8 ovarian
U251 CNS = test system: U251 CNS
786-0 renal = test system: 786-0 renal
HCT-116 colon = test system: HCT-116 colon
CAKI-1 renal = test system: CAKI-1 renal
RXF-631 renal = test system: RXF-631 renal
SF-268 CNS = test system: SF-268 CNS
SNB-75 CNS = test system: SNB-75 CNS
HOP-18 NSCLC = test system: HOP-18 NSCLC
SF-539 CNS = test system: SF-539 CNS
KM20L2 colon = test system: KM20L2 colon
HOP-62 NSCLC = test system: HOP-62 NSCLC
EKVX NSCLC = test system: EKVX NSCLC
OVCAR-4 ovarian = test system: OVCAR-4 ovarian
DLD-1 colon = test system: DLD-1 colon
OVCAR-3 ovarian = test system: OVCAR-3 ovarian
UACC-257 melanoma = test system: UACC-257 melanoma
DMS 114 small cell lung = test system: DMS 114 small cell lung
SW-620 colon = test system: SW-620 colon
CCRF-CEM leukemia = test system: CCRF-CEM leukemia
NCI-H226 lung = test system: NCI-H226 lung
A549 NSCLC = test system: A549 NSCLC
ACHN renal = test system: ACHN renal
A498 renal = test system: A498 renal
HCT-15 colon = test system: HCT-15 colon
HCC-2998 colon = test system: HCC-2998 colon

With `CC[O-].Cc1ccc2cccc([O-])c2n1.Cc1ccc2cccc([O-])c2n1.Cc1ccc2cccc([O-])c2n1.[Ti+4]` the GI50 (COLO 205 colon) was 19.5 µM, the TGI (COLO 205 colon) was 39.8 µM and the GI50 (SNB-19 CNS) was greater than 53.9 µM. It also gave a TGI (SNB-19 CNS) greater than 100 µM, a GI50 (UO-31 renal) greater than 100 µM and a TGI (UO-31 renal) greater than 100 µM. It also gave a GI50 (OVCAR-8 ovarian) of 12.4 µM, a TGI (OVCAR-8 ovarian) of 47.1 µM and a GI50 (U251 CNS) of 18.3 µM. It also gave a TGI (U251 CNS) of 50.4 µM, a GI50 (786-0 renal) of 28.9 µM and a TGI (786-0 renal) greater than 57.9 µM. The GI50 (HCT-116 colon) was 33.8 µM, the TGI (HCT-116 colon) was greater than 100 µM and the GI50 (CAKI-1 renal) was greater than 86.6 µM. The TGI (CAKI-1 renal) was greater than 100 µM, the GI50 (RXF-631 renal) was 18.8 µM and the TGI (RXF-631 renal) was greater than 65.4 µM. The GI50 (SF-268 CNS) was greater than 83.5 µM, the TGI (SF-268 CNS) was greater than 100 µM and the GI50 (SNB-75 CNS) was 63.8 µM. It also gave a TGI (SNB-75 CNS) greater than 100 µM, a GI50 (HOP-18 NSCLC) of 41.1 µM and a TGI (HOP-18 NSCLC) greater than 92.6 µM. For the same compound, the GI50 (SF-539 CNS) was 40.4 µM, the TGI (SF-539 CNS) was greater than 100 µM and the GI50 (KM20L2 colon) was greater than 54.2 µM. The TGI (KM20L2 colon) was greater than 100 µM, the GI50 (HOP-62 NSCLC) was 53.6 µM and the TGI (HOP-62 NSCLC) was greater than 100 µM. It also gave a GI50 (EKVX NSCLC) greater than 46 µM, a TGI (EKVX NSCLC) greater than 73.5 µM and a GI50 (OVCAR-4 ovarian) of 25 µM. The TGI (OVCAR-4 ovarian) was greater than 68.3 µM, the GI50 (DLD-1 colon) was 28.9 µM and the TGI (DLD-1 colon) was greater than 81 µM. It also gave a GI50 (OVCAR-3 ovarian) of 34.1 µM, a TGI (OVCAR-3 ovarian) greater than 100 µM and a GI50 (UACC-257 melanoma) of 18.6 µM. The TGI (UACC-257 melanoma) was greater than 85 µM, the GI50 (DMS 114 small cell lung) was 21.9 µM and the TGI (DMS 114 small cell lung) was greater than 59.3 µM. It also gave a GI50 (SW-620 colon) of 29.6 µM, a TGI (SW-620 colon) greater than 61.1 µM and a GI50 (CCRF-CEM leukemia) of 6.97 µM. The TGI (CCRF-CEM leukemia) was 38.8 µM, the GI50 (NCI-H226 lung) was greater than 59.6 µM and the TGI (NCI-H226 lung) was greater than 100 µM. It also gave a GI50 (A549 NSCLC) of 11.1 µM, a TGI (A549 NSCLC) of 20.6 µM and a GI50 (ACHN renal) of 50.3 µM. For the same compound, the TGI (ACHN renal) was greater than 100 µM, the GI50 (A498 renal) was greater than 63.2 µM and the TGI (A498 renal) was greater than 100 µM. For the same compound, the GI50 (HCT-15 colon) was 42.4 µM, the TGI (HCT-15 colon) was greater than 100 µM and the GI50 (HCC-2998 colon) was 27.5 µM. It also gave a TGI (HCC-2998 colon) greater than 67.8 µM.
